Several values for one entry are separate records, joined by “and”; a condition that tells them apart may be missing. Identical values can stand only once.
Tested on: neonatal rat cardiomyocytes
Experiment: cDNA microarray analysis (Affymetrix Rat Expression Set 230), x-fold changes of clustered genes
Assay type: cell-based
Details: 72 h, experiments (1) and (2)
Method: Animal experiments were performed in accordance with guidelines of Children's Hospital, Boston and UCLA. Ventricular cardiomyocytes from fetal (E19), 2-day-old (P2) and adult (250-350 g) Wistar rats (Charles River) were isolated as described with minor modifications (Engel et al. 1999; Engel et al. 2003). After digestion of fetal or neonatal hearts (0.14 mg/ml collagenase II (Invitrogen), 0.55 mg/ml pancreatin (Sigma)) cells were cultured in DMEM/F12 (GIBCO) containing 3 mM Na-pyruvate, 0.2% BSA, 0.1 mM ascorbic acid (Sigma), 0.5% Insulin-Transferrin-Selenium (100×), penicillin (100 U/ml), streptomycin (100 μg/ml), and 2 mM L-glutamine (GIBCO). Adult cardiomyocytes were cultured for 1 day in standard medium (DMEM, 25 mM Hepes, 5 mM taurine, 5 mM creatine, 2 mM L-carnitine (Sigma), 20 U/ml insulin (GIBCO), 0.2% BSA, penicillin (100 U/ml), and streptomycin (100 μg/ml)). Cells were stimulated in culture medium without BSA containing 2 mM L-glutamine. Neonatal and adult cardiomyocytes were initially cultured for 48 h in the presence of 20 μM cytosine β-D-arabinofuranoside (araC, Sigma) and 5% horse serum before stimulation to prevent proliferation of non-myocytes. Adult cardiomyocytes were incubated another 3 days with araC during stimulation. Neonatal cardiomyocytes were stimulated every day with growth factors for BrdU and H3P analyses (FGF1 and NRG-1-1β at 50 ng/ml, IL-1β at 100 ng/ml, R&D Systems, all diluted in 0.1% BSA/PBS). SB203580 and LY294002 (Calbiochem) was added every day. Adult cardiomyocytes were stimulated with fresh medium and SB203580 every 3 days.
RNA of neonatal cardiomyocytes was prepared 72 h after stimulation using Trizol (Invitrogen). RT-PCR was performed following standard protocols (Supplemental Table S4). Affymetrix technology was applied using the Rat Expression Set 230.
To determine the effect of p38 inhibition on cardiomyocyte differentiation and proliferation, a specific inhibitor of p38α and p38β, SB203580, was used and evaluated using cDNA microarray analyses using neonatal rat cardiomyocytes. […] Expression changes of a subset of genes were validated by RT-PCR.
Stimulation of neonatal cardiomyocytes with FGF1 induces fetal gene expression. To determine if FGF1, in combination with p38 inhibition, can reverse differentiation and induce cell cycle re-entry, we repeated cDNA microarray analyses (Supplemental Table S1). […]

With FGF1: growth factor FGF1 (R&D Systems) the “Actn1 expression, x-fold change” value was 1.9 x-fold, the “CXC chemokine LIX expression, x-fold change” value was 0.4 x-fold and the “Cdc42 effector protein expression, x-fold change” value was 0.8 x-fold. The “Cfl1 expression, x-fold change” value was 0.6 x-fold, the “Connexin 40 expression, x-fold change” value was 0.8 x-fold and the “Edg2 expression, x-fold change” value was 0.4 x-fold. For the same substance, the “Enigma expression, x-fold change” value was 2.3 x-fold, the “Epha3 expression, x-fold change” value was 0.5 x-fold and the “Epidermal growth factor-like protein, T16 precursor expression, x-fold change” value was 0.3 x-fold. For the same substance, the “Fgf16 expression, x-fold change” value was 0.8 x-fold, the “Figf expression, x-fold change” value was 0.3 x-fold and the “Kruppel-like factor 4 expression, x-fold change” value was 1.1 x-fold. For the same substance, the “Lgals5 expression, x-fold change” value was 2.9 x-fold, the “Maf-2 expression, x-fold change” value was 0.5 x-fold and the “Mtss1 expression, x-fold change” value was 0.5 x-fold. The “Nr2f2/COUP-TFII expression, x-fold change” value was 0.8 x-fold, the “Nudt4 expression, x-fold change” value was 0.8 x-fold and the “Osteoglycin expression, x-fold change” value was 0.4 x-fold. The “Osterix expression, x-fold change” value was 0.6 x-fold, the “PTTG1 expression, x-fold change” value was 1.4 x-fold and the “Protein tyrosine phosphatase, receptor type, D (Ptprd) expression, x-fold change” value was 0.5 x-fold. For the same substance, the “RPTPK expression, x-fold change” value was 0.4 x-fold, the “Rbp2 expression, x-fold change” value was 0.6 x-fold and the “Rdc1 expression, x-fold change” value was 0.5 x-fold. For the same substance, the “Rev-ErbA-beta expression, x-fold change” value was 0.7 x-fold, the “RhoGAP expression, x-fold change” value was 0.8 x-fold and the “Septin 6 expression, x-fold change” value was 1.9 x-fold. The “Serine-threonine specific protein phosphatase, GL subunit expression, x-fold change” value was 0.7 x-fold, the “Seta expression, x-fold change” value was 1.0 x-fold and the “TRAF4 associated factor 1 expression, x-fold change” value was 1.9 x-fold. The “Troponin I, slow isoform expression, x-fold change” value was 0.6 x-fold, the “Vcam1 expression, x-fold change” value was 0.3 x-fold and the “Wisp2 expression, x-fold change” value was 0.8 x-fold. For the same substance, the “(BEM)-3 expression, x-fold change” value (listed as FGF) was 1.4 x-fold and 1.6 x-fold, the “AGTR1 expression, x-fold change” value (listed as FGF) was 0.4 x-fold and 0.5 x-fold and the “Acta1 expression, x-fold change” value (listed as FGF) was 4.8 x-fold and 6.3 x-fold. For the same substance, the “Actinin expression, x-fold change” value (listed as FGF) was 1.8 x-fold and 1.5 x-fold, the “Adrenergic, alpha 1B-, receptor expression, x-fold change” value (listed as FGF) was 0.8 x-fold and 0.7 x-fold and the “Adrenomedullin precursor expression, x-fold change” value (listed as FGF) was 0.4 x-fold and 0.6 x-fold. For the same substance, the “Agtr1a expression, x-fold change” value (listed as FGF) was 0.6 x-fold and 0.4 x-fold, the “Anillin expression, x-fold change” value (listed as FGF) was 3.3 x-fold and 1.9 x-fold and the “Ankyrin 2, neuronal expression, x-fold change” value (listed as FGF) was 0.6 x-fold and 0.7 x-fold. For the same substance, the “Ankyrin repeat domain-containing SOCS box protein 12 expression, x-fold change” value (listed as FGF) was 0.5 x-fold and 0.6 x-fold, the “Apoptosis protein MA-3 expression, x-fold change” value (listed as FGF) was 0.8 x-fold and 0.7 x-fold and the “Arrestin domain containing 3 expression, x-fold change” value (listed as FGF) was 0.3 x-fold and 0.5 x-fold. For the same substance, the “Aurora B expression, x-fold change” value (listed as FGF) was 1.5 x-fold and 1.9 x-fold, the “BMP2 expression, x-fold change” value (listed as FGF) was 6.0 x-fold and 3.4 x-fold and the “BMP6 precursor expression, x-fold change” value (listed as FGF) was 1.4 x-fold and 1.7 x-fold. For the same substance, the “BOC expression, x-fold change” value (listed as FGF) was 0.5 x-fold and 0.6 x-fold, the “Bcl2a1 expression, x-fold change” value (listed as FGF) was 0.4 x-fold and 0.6 x-fold and the “Bmp3 expression, x-fold change” value (listed as FGF) was 0.5 x-fold and 0.6 x-fold. The “Bub1 expression, x-fold change” value (listed as FGF) was 1.4 x-fold and 1.2 x-fold, the “CABC1 expression, x-fold change” value (listed as FGF) was 0.6 x-fold and 0.5 x-fold and the “CDKN3/KAP/CDI1 expression, x-fold change” value (listed as FGF) was 1.7 x-fold and 2.0 x-fold. The “CENP-E expression, x-fold change” value (listed as FGF) was 1.3 x-fold and 1.7 x-fold, the “CISH expression, x-fold change” value (listed as FGF) was 0.4 x-fold and 0.5 x-fold and the “CKS2 expression, x-fold change” value (listed as FGF) was 1.7 x-fold and 1.4 x-fold. The “CREB5 expression, x-fold change” value (listed as FGF) was 1.3 x-fold and 1.8 x-fold, the “CSRP1 expression, x-fold change” value (listed as FGF) was 1.9 x-fold and 1.8 x-fold and the “CXCL4 expression, x-fold change” value (listed as FGF) was 0.7 x-fold and 0.6 x-fold. For the same substance, the “Cacalmodulin-dependent protein kinase phosphatase expression, x-fold change” value (listed as FGF) was 0.9 x-fold and 1.3 x-fold, the “Cadherin 13 expression, x-fold change” value (listed as FGF) was 1.5 x-fold and 1.9 x-fold and the “Calponin 1 expression, x-fold change” value (listed as FGF) was 6.4 x-fold and 4.9 x-fold. The “Casein kinase I delta expression, x-fold change” value (listed as FGF) was 1.3 x-fold and 0.9 x-fold, the “Catenin, alpha-1 expression, x-fold change” value (listed as FGF) was 1.6 x-fold and 1.5 x-fold and the “Cdc2a expression, x-fold change” value (listed as FGF) was 1.7 x-fold and 1.8 x-fold. For the same substance, the “Cdc20 expression, x-fold change” value (listed as FGF) was 1.9 x-fold and 1.7 x-fold, the “Cdc25B expression, x-fold change” value (listed as FGF) was 1.6 x-fold and 1.3 x-fold and the “Cdca3 expression, x-fold change” value (listed as FGF) was 1.3 x-fold and 1.4 x-fold. For the same substance, the “Cish2 expression, x-fold change” value (listed as FGF) was 0.6 x-fold and 0.8 x-fold, the “Cish3 expression, x-fold change” value (listed as FGF) was 0.8 x-fold and 0.9 x-fold and the “Cish expression, x-fold change” value (listed as FGF) was 0.4 x-fold and 0.5 x-fold. The “Connexin 43 expression, x-fold change” value (listed as FGF) was 0.9 x-fold and 0.8 x-fold, the “Csrp3/MLP expression, x-fold change” value (listed as FGF) was 2.7 x-fold and 4.2 x-fold and the “Ctgf expression, x-fold change” value (listed as FGF) was 1.9 x-fold and 1.6 x-fold. The “Cxcl12 expression, x-fold change” value (listed as FGF) was 0.5 x-fold and 0.3 x-fold, the “Cyclin A2 expression, x-fold change” value (listed as FGF) was 1.8 x-fold and 1.1 x-fold and the “Cyclin B1 expression, x-fold change” value (listed as FGF) was 1.2 x-fold and 1.0 x-fold. For the same substance, the “Cyclin B expression, x-fold change” value (listed as FGF) was 1.9 x-fold and 1.8 x-fold, the “Cyclin D1 expression, x-fold change” value (listed as FGF) was 4.2 x-fold and 3.3 x-fold and the “DAPK1 expression, x-fold change” value (listed as FGF) was 0.6 x-fold and 0.5 x-fold. The “DUSP6 expression, x-fold change” value (listed as FGF) was 2.8 x-fold and 4.4 x-fold, the “Ddr2 expression, x-fold change” value (listed as FGF) was 0.5 x-fold and 0.8 x-fold and the “Desmin expression, x-fold change” value (listed as FGF) was 2.2 x-fold and 1.8 x-fold. The “Diaphanous homolog 3 expression, x-fold change” value (listed as FGF) was 2.5 x-fold and 1.9 x-fold, the “Dok-5 expression, x-fold change” value (listed as FGF) was 2.7 x-fold and 2.6 x-fold and the “Dri42 expression, x-fold change” value (listed as FGF) was 0.5 x-fold and 0.3 x-fold. For the same substance, the “ETV5/ERM/PEA3 expression, x-fold change” value (listed as FGF) was 20.4 x-fold and 11.2 x-fold, the “Ect2 expression, x-fold change” value (listed as FGF) was 1.9 x-fold and 2.5 x-fold and the “Egfl3 expression, x-fold change” value (listed as FGF) was 0.4 x-fold and 0.5 x-fold. The “Emr1 expression, x-fold change” value (listed as FGF) was 0.6 x-fold and 0.4 x-fold, the “EphA2 expression, x-fold change” value (listed as FGF) was 2.2 x-fold and 1.7 x-fold and the “Ephrin B3 expression, x-fold change” value (listed as FGF) was 0.7 x-fold and 0.8 x-fold. The “FCEG expression, x-fold change” value (listed as FGF) was 0.7 x-fold and 0.5 x-fold, the “FHL1 expression, x-fold change” value (listed as FGF) was 7.3 x-fold and 5.1 x-fold and the “FHOS2 expression, x-fold change” value (listed as FGF) was 0.7 x-fold and 0.8 x-fold. For the same substance, the “Fancd2 expression, x-fold change” value (listed as FGF) was 0.7 x-fold and 1.1 x-fold, the “Fbln5 expression, x-fold change” value (listed as FGF) was 0.4 x-fold and 0.6 x-fold and the “Fcgr2 expression, x-fold change” value (listed as FGF) was 0.5 x-fold and 0.6 x-fold. The “Fcgr3 expression, x-fold change” value (listed as FGF) was 0.5 x-fold and 0.6 x-fold, the “Flt4/VEGFR3 expression, x-fold change” value (listed as FGF) was 1.8 x-fold and 2.5 x-fold and the “Frizzled-related protein 2 expression, x-fold change” value (listed as FGF) was 0.5 x-fold and 0.3 x-fold. The “Fzd1 expression, x-fold change” value (listed as FGF) was 0.7 x-fold and 0.8 x-fold, the “G0S2-like protein expression, x-fold change” value (listed as FGF) was 0.5 x-fold and 0.6 x-fold and the “GADD45a expression, x-fold change” value (listed as FGF) was 1.8 x-fold and 1.3 x-fold. The “GADD45 gamma expression, x-fold change” value (listed as FGF) was 3.0 x-fold and 2.9 x-fold, the “GDF15 expression, x-fold change” value (listed as FGF) was 1.6 x-fold and 2.6 x-fold and the “GOA1B expression, x-fold change” value (listed as FGF) was 2.9 x-fold and 3.0 x-fold. For the same substance, the “Gab1 expression, x-fold change” value (listed as FGF) was 0.6 x-fold and 0.7 x-fold, the “Ghr expression, x-fold change” value (listed as FGF) was 0.9 x-fold and 0.8 x-fold and the “Glypican (GPC)-3 expression, x-fold change” value (listed as FGF) was 0.4 x-fold and 0.5 x-fold. The “Growth hormone receptor expression, x-fold change” value (listed as FGF) was 0.7 x-fold and 0.8 x-fold.

Source: patent publication US20060281791A1, “Methods of increasing proliferation of adult mammalian cardiomyocytes through p38 map kinase inhibition” (CHILDREN'S MEDICAL CENTER CORPORATION, priority 2005, published 2006)
